For assay [1], the system named is primary human coronary smooth muscle cells. The experiment in a line: Flow cytometry of apoptosis in cultured SMCs (FITC-Annexin V / PI double staining). In kind it is cell-based. As for the experimental part: The effect of IFNγ on the survival of cultured proliferating SMCs was analyzed by flow cytometry. For this reason primary human coronary smooth muscle cells were obtained from CellSystems (Germany) and were grown in Smooth muscle cell growth medium (CellSystems) containing 5% fetal calf serum (CellSystems) at 37° C. in a humidified atmosphere of 5% CO2. SMCs were used between passages 2 and 4. Treatment with 1000 U/ml rh-IFNγ (R&D Systems) was performed for 16 h. For induction of cell death, SMCs were incubated at 37° C. for 1 h in HBSS containing 100 μmol/l H2O2 and 100 μmol/l ferrous sulfate. Afterwards the cells were further cultured in freshly prepared culture medium for 8 h. Cells were labelled with FITC-labelled Annexin V (Roche Diagnostics) and propidium iodide (PI) according to the manufacturer's instructions. 10^4 events were analyzed with a flow cytometer (Becton Dickinson).
(A flow cytometer gives signals particle by particle.)

In assay [2] the test system is human coronary artery smooth muscle cells (CASMC). The experiment in a line: Transcriptome analysis (cDNA arrays) of treated cultured CASMC. In kind it is cell-based. The conditions noted are these: 1000 U/ml IFN-γ, 16 hours, 37° C. The protocol:
To adapt the transcriptional profile of cultured human coronary artery smooth muscle cells (CASMC) (Clonetics) to that of neointima, CASMC were stimulated with IFN-g and performed transcriptome analysis as described above. CASMC were cultured as described in the manufacter's manual in growth medium until 50% confluency was reached. Afterwards cells were stimulated with 1000 U/ml IFN-γ (R&D, Germany) for 16 hours at 37° C. Cells were washed twice in PBS and RNA preparation, cDNA synthesis and amplification and transcriptome analysis was performed as described above.
As proliferating CASMC overexpress FKBP12 like neointima, this cell line can be employed as a potential surrogate cell line for neointima in respect to therapeutic effects of rapamycin. Therefore, in a first step, CASMC were incubated with lo0ng/ml rapamycin (Sigma) for 24 hours and transcriptome analysis was performed in order to monitore the therapeutic effect.
Afterwards, microscopic specimen of in-stent restenotic tissue are incubated with rapamycin and transcriptome analysis was performed as described herein above. Transcriptome/gene expression pattern of rapamycin treated CASMC was compared to the transcriptome of rapamycin-treated neointima to measured the effectiveness of CASMC as a surrogate cell line for neointima.

A further assay concerns the target T1, glycoprotein IIb/IIIa (Homo sapiens, UniProt P05106+P08514).
T1 construct: host or cells: patients in clinical trials (endogenous protein)
To be noted: at 30 days after surgery; versus 10.6%; cited from earlier work.

Take “IFNγ: recombinant human interferon γ (R&D Systems), a cytokine mainly produced by T-lymphocytes”: the “spontaneous apoptosis (apoptotic cells)” value in assay [1] (SMCs after 1000 U/ml rh-IFNγ for 16 h, untreated 10%) stood at 6%. The “number of apoptotic cells after induction of apoptosis with H2O2” value in assay [1] (SMCs, 1000 U/ml rh-IFNγ 16 h, then 100 μmol/l H2O2, without IFNγ 54%) is listed as 27%. Besides, in assay [2], the “gene expression pattern of CASMCs after incubation” value is reported as “neointima-specific IFN-γ gene expression pattern could be generated”.

“abciximab: monoclonal antibody recognizing glycoprotein IIb/IIIa”: the “death rate, myocardial infarction and/or target vessel vascularization” value with glycoprotein IIb/IIIa is reported as 5.3%.

These data come from patent US20040048816A1, “Restenosis treatment” (priority 2000, published 2004).
